Laboratory results: patent US20100278938A1, “GENETIC TEST AND PET DIET” (MARS, INC, priority 2007, published 2010)

Experiment: Pharmacokinetic study of oral zinc gluconate, plasma zinc by atomic absorption spectrometry
Assay type: in vivo, Labrador Retrievers
Set-up: unit not given here
Description: Two unrelated nine-year old, healthy Labrador Retrievers (1 female and 1 male) were used in a pharmacokinetic study. Food was withheld for a 12-hour period prior to oral administration of zinc, and during the initial 6-hour testing period. Water was freely available. […] Heparinized blood samples (4 ml) were collected from the jugular vein before dosing (time 0) and 15, 30, 45, 60, 90, 120 minutes, and 4, 8, 12 and 24 hours after application of the drug. Plasma was stored at −20° C. until analysis for zinc using atomic absorption spectrometry.
In addition the test was used to detect a difference between group-1 and group-2 before the study, at recheck-1, and at recheck-2 (significance level p<0.05).

In the case of zinc gluconate, the “K01: absorption rate constant” value (Dog 1, oral 10 mg/kg) is reported as 0.5672, the “K10: elimination rate constant” value (Dog 1, oral 10 mg/kg) is reported as 0.05373 and the “K01: absorption rate constant” value (Dog 2, oral 5 mg/kg) is reported as 1.161. The “K10: elimination rate constant” value (Dog 2, oral 5 mg/kg) was 0.03789.
